Reference: US10654834B2 (Venenum Biodesign, LLC, priority 2016, dated 2020)

Legend:
[1] = test system: Mouse STC-1 cells; test: STC-1 GLP-1 assay (GLP-1 secretion); format: cell-based; settings: Mouse STC-1 cells, GLP-1 secretion, 2 h; read-out: Mouse STC-1 HTRF GLP-1 Activity (EC50)
How it was run: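 Secreted active GLP-1 was measured by HTRF after overnight room-temperature incubation of supernatant with the conjugates. Supernatants came from a 2 h, 37° C. compound exposure (12-point half-log series) in HBSS with DPP-IV and protease inhibitors and 0.1% fatty acid free BSA. STC-1 cells had been seeded two days earlier in stripped-serum DMEM; EC50 reported.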

[2] = target: T1, human TGR5 receptor (Homo sapiens, UniProt Q8TDU6); test: Human TGR5 cAMP production assay (hTGR5-CHO cells, DiscoveRx cAMP XS+ kit); format: cell-based; settings: luminescent cAMP assay, read-out: Human TGR5 Lum. cAMP Activity (EC50)
T1 construct: host or cells: CHO-K1 (hTGR5-CHO)
T1 sequence (Q8TDU6 1-330): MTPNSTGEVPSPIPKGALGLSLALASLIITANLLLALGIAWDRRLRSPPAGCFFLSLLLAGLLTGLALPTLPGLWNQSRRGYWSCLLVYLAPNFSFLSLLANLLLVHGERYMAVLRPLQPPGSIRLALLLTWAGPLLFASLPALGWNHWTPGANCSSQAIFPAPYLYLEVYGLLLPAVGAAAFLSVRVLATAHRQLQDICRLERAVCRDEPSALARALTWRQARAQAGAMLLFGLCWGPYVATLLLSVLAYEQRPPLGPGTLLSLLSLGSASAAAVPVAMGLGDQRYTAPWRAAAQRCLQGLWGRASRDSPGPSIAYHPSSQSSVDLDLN
How it was run: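 EC50 values come from luminescent enzyme-complementation cAMP detection, read after overnight incubation. Beforehand, hTGR5-expressing CHO-K1 cells with IBMX and anti-cAMP antibody were exposed 1 h at room temperature to serially diluted (half-log) compounds.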

Row | EC50 [1] [µM] | EC50 [2] [µM] | Structure (SMILES)
1 | < 0.1 | < 0.1 | N#Cc1ccc(CCNC(=O)[C@@H]2CCCN2c2cc(N3CCC(CCCC(=O)NCS(=O)(=O)O)CC3)nc(C(F)(F)F)n2)cc1 [Compound 66, (S)-(4-(1-(6-(2-((4-cyanophenethyl)carbamoyl)pyrrolidin-1-yl)-2-(trifluoromethyl)pyrimidin-4-yl)piperidin-4-yl)butanamido)-methanesulfonic acid]
2 | < 0.1 | < 0.1 | CS(=O)(=O)NCCNC(=O)CCCC1CCN(c2cc(N3CCC[C@H]3C(=O)NCCc3ccc(C#N)cc3)nc(C(F)(F)F)n2)CC1 [Compound 93]
3 | 0.1 to 0.999 | < 0.1 | N#Cc1ccc(CCNC(=O)[C@@H]2CCCN2c2cc(N3CCC(CCCC(=O)NCC(N)=O)CC3)nc(C(F)(F)F)n2)cc1 [Compound 68, (S)-1-(6-(4-(4-((2-amino-2-oxoethyl)amino)-4-oxobutyl)piperidin-1-yl)-2-(trifluoromethyl)pyrimidin-4-yl)-N-(4-cyanophenethyl)pyrrolidine-2-carboxamide]
4 | < 0.1 | < 0.1 | O=C(NCCC1CCN(c2cc(N3CCC[C@H]3C(=O)NCCc3ccc(C(F)(F)F)cc3)nc(C(F)(F)F)n2)CC1)NCCS(=O)(=O)O [Compound 86, (S)-2-(3-(2-(1-(2-(trifluoromethyl)-6-(2-((4-(trifluoromethyl)phenethyl)-carbamoyl)pyrrolidin-1-yl)pyrimidin-4-yl)piperidin-4-yl)ethyl)ureido)-ethanesulfonic acid]
5 | 0.1 to 0.999 | < 0.1 | N#Cc1ccc(CCNC(=O)[C@@H]2CCCN2c2cc(N3CCC(CCNC(=O)NCCC(=O)O)CC3)nc(C(F)(F)F)n2)cc1 [Compound 81, (S)-3-(3-(2-(1-(6-(2-((4-cyanophenethyl)carbamoyl)pyrrolidin-1-yl)-2-(trifluoromethyl)pyrimidin-4-yl)piperidin-4-yl)ethyl)ureido)-propanoic acid]
6 | < 0.1 | < 0.1 | N#Cc1ccc(CCNC(=O)[C@@H]2CCCN2c2cc(N3CCC(CCNC(=O)NCCS(=O)(=O)O)CC3)nc(C(F)(F)F)n2)cc1 [Compound 78, (S)-2-(3-(2-(1-(6-(2-((4-cyanophenethyl)carbamoyl)pyrrolidin-1-yl)-2-(trifluoromethyl)pyrimidin-4-yl)piperidin-4-yl)ethyl)ureido)ethanesulfonic acid]
7 | 0.1 to 0.999 | < 0.1 | N#Cc1ccc(CCNC(=O)[C@@H]2CCCN2c2cc(N3CCC(CCNC(=O)NCCS(N)(=O)=O)CC3)nc(C(F)(F)F)n2)cc1 [Compound 80, (S)-N-(4-cyanophenethyl)-1-(6-(4-(2-(3-(2-sulfamoylethyl)ureido)-ethyl)piperidin-1-yl)-2-(trifluoromethyl)pyrimidin-4-yl)pyrrolidine-2-carboxamide]

The next lines start with the compound.

Row | Structure (SMILES) | EC50 [1] [µM] | EC50 [2] [µM]
8 | CS(=O)(=O)NCCNC(=O)CCCC1CCN(c2cc(N3CCC[C@H]3C(=O)NCCc3ccc(C(F)(F)F)cc3)nc(C(F)(F)F)n2)CC1 [Compound 91, (S)-1-(6-(4-(4-((2-(methylsulfonamido)ethyl)amino)-4-oxobutyl)piperidin-1-yl)-2-(trifluoromethyl)pyrimidin-4-yl)-N-(4-(trifluoromethyl)phenethyl)pyrrolidine-2-carboxamide] | < 0.1 | < 0.1
9 | N#Cc1ccc(CCNC(=O)[C@@H]2CCCN2c2cc(N3CCC(CCCC(=O)NCCNc4cc(C(=O)O)ncn4)CC3)nc(C(F)(F)F)n2)cc1 [Compound 101, (S)-6-((2-(4-(1-(6-(2-((4-cyanophenethyl)carbamoyl)pyrrolidin-1-yl)-2-(trifluoromethyl)pyrimidin-4-yl)piperidin-4-yl)butanamido)ethyl)amino)-pyrimidine-4-carboxylic acid] | < 0.1 | < 0.1
10 | O=C(CCCC1CCN(c2cc(N3CCC[C@H]3C(=O)NCCc3ccc(C(F)(F)F)cc3)nc(C(F)(F)F)n2)CC1)NCCNc1ncnc2c1ncn2[C@@H]1O[C@H](CO)C(O)C1O (stereo partly drawn) [Compound 96, (2S)-1-(6-(4-(4-((2-((9-((2R,5R)-3,4-dihydroxy-5-(hydroxymethyl)-tetrahydrofuran-2-yl)-9H-purin-6-yl)amino)ethyl)amino)-4-oxobutyl)piperidin-1-yl)-2-(trifluoromethyl)-pyrimidin-4-yl)-N-(4-(trifluoromethyl)-phenethyl)-pyrrolidine-2-carboxamide] | < 0.1 | < 0.1
11 | N#Cc1ccc(CCNC(=O)[C@@H]2CCCN2c2cc(N3CCC(CO)CC3)nc(C(F)(F)F)n2)cc1 [Compound 1, (S)—N-(4-cyanophenethyl)-1-(6-(4-(hydroxymethyl)piperidin-1-yl)-2-(trifluoromethyl)pyrimidin-4-yl)pyrrolidine-2-carboxamide] | 0.1 to 0.999 | < 0.1
12 | N#Cc1ccc(CCNC(=O)[C@@H]2CCCN2c2cc(N3CCC(COCC(=O)O)CC3)nc(C(F)(F)F)n2)cc1 [Compound 88, (S)-2-((1-(6-(2-((4-cyanophenethyl)carbamoyl)pyrrolidin-1-yl)-2-(trifluoromethyl)pyrimidin-4-yl)piperidin-4-yl)methoxy)acetic acid] | 0.1 to 0.999 | 0.1 to 0.999
13 | N#Cc1ccc(CCNC(=O)[C@@H]2CCCN2c2cc(N3CCC(CCCC(=O)N[C@@H](CCC(=O)O)C(=O)O)CC3)nc(C(F)(F)F)n2)cc1 [Compound 76, (S)-2-(4-(1-(6-((S)-2-((4-cyanophenethyl)carbamoyl)pyrrolidin-1-yl)-2-(trifluoromethyl)pyrimidin-4-yl)piperidin-4-yl)butanamido)-pentanedioic acid] | 0.1 to 0.999 | < 0.1
14 | N#Cc1ccc(CCNC(=O)[C@@H]2CCCN2c2cc(N3CCC(CCCC(=O)NCP(=O)(O)O)CC3)nc(C(F)(F)F)n2)cc1 [Compound 64, (S)-((4-(1-(6-(2-((4-cyanophenethyl)carbamoyl)pyrrolidin-1-yl)-2-(trifluoromethyl)pyrimidin-4-yl)piperidin-4-yl)butanamido)methyl)-phosphonic acid] | 0.1 to 0.999 | < 0.1
15 | N#Cc1ccc(CCNC(=O)[C@@H]2CCCN2c2cc(N3CCC(CCCC(=O)N[C@@H](CCCNC(=N)N)C(=O)O)CC3)nc(C(F)(F)F)n2)cc1 [Compound 72, (S)-2-(4-(1-(6-((S)-2-((4-cyanophenethyl)carbamoyl)pyrrolidin-1-yl)-2-(trifluoromethyl)pyrimidin-4-yl)piperidin-4-yl)butanamido)-5-guanidinopentanoic acid] | 0.1 to 0.999 | < 0.1
